For 26 compounds, IC50 results are on record in patent US10961242B2, “Compounds as autotaxin inhibitors and pharmaceutical compositions comprising the same” (LegoChem Biosciences, Inc., priority 2018, dated 2021).

Structures are written as SMILES. Structures can show the parent of a compound that is named as a salt.

The assay has as its target human ENPP2 (Homo sapiens (Human), UniProt Q13822). The assay is described as follows: Inhibitory activity on human ENPP2 (FS-3 assay). Type of assay: biochemical. Particulars: human ENPP2, FS-3 substrate, 30 min at 37° C.; read-out: IC50. The procedure: Two-fold dilution of each test compound solution (10 μM, 100% dimethyl sulfoxide) is carried out on 96-well V bottom plate (Costar 3363). After ten-fold dilution of each the test compound solution (100% dimethyl sulfoxide) with deionized distilled water, 10 μL of the diluted each mpound solution (10% dimethyl sulfoxide) was aliquoted to a black flat bottom 96-well plate (Costar 3915).
As for `O=C(NCCC(=O)N1CCc2[nH]nnc2C1)c1cnc(NC2Cc3ccccc3C2)nc1` [Compound 1, 2-[(2,3-dihydro-1H-inden-2-yl)amino]-N-(3-oxo-3-{1H,4H,5H,6H,7H-[1,2,3]triazolo[4,5-c]pyridin-5-yl}propyl)pyrimidine-5-carboxamide], the IC50 (commonly the midpoint of a concentration-inhibition curve) came to 3.3 nM. As for `O=C(NCC(=O)N1CCc2[nH]nnc2C1)c1cnc(NCc2cccc(OC(F)(F)F)c2)nc1` [Compound 3, N-(2-oxo-2-{1H,4H,5H,6H,7H-[1,2,3]triazolo[4,5-c]pyridin-5-yl}ethyl)-2-({[3-(trifluoromethoxy)phenyl]methyl}amino)pyrimidine-5-carboxamide], the IC50 stood at 14.3 nM.

Regarding `CC(NC(=O)c1cnc(NCc2cccc(OC(F)(F)F)c2)nc1)C(=O)N1CCc2[nH]nnc2C1` (centres unmarked) [Compound 4, N-(1-oxo-1-{1H,4H,5H,6H,7H-[1,2,3]triazolo[4,5-c]pyridin-5-yl}propan-2-yl)-2-({[3-(trifluoromethoxy)phenyl]methyl}amino)pyrimidine-5-carboxamide], the IC50 was determined as 18.9 nM. Turning to `O=C(c1cnc(NCc2cccc(OC(F)(F)F)c2)nc1)N1CCC2(CC1)CC(CN1CCc3[nH]nnc3C1)=NO2` [Compound 8, 5-(3-{1H,4H,5H,6H,7H-[1,2,3]triazolo[4,5-c]pyridin-5-ylmethyl}-1-oxa-2,8-diazaspiro[4,5]dec-2-ene-8-carbonyl)-N-{[3-(trifluoromethoxy)phenyl]methyl}pyrimidin-2-amine], the IC50 is 3.5 nM. As for `O=C(CCc1ccc2[nH]c(=O)oc2c1)N1CCC(c2cnc(NC3Cc4ccccc4C3)nc2)CC1` [Compound 16, 6-[3-(4-{2-[(2,3-dihydro-1H-inden-2-yl)amino]pyrimidin-5-yl}piperidin-1-yl)-3-oxopropyl]-2,3-dihydro-1,3-benzoxazol-2-one], the IC50 came out at 2.2 nM. Turning to `O=C(CN1CCc2[nH]nnc2C1)N1CCN(c2cnc(NC3Cc4ccccc4C3)nc2)CC1` [Compound 17, 1-(4-{2-[(2,3-dihydro-1H-inden-2-yl)amino]pyrimidin-5-yl}piperazin-1-yl)-2-{1H,4H,5H,6H,7H-[1,2,3]triazolo[4,5-c]pyridin-5-yl}ethan-1-one], the IC50 is 3.4 nM. As for `O=C(CN1CCc2[nH]nnc2C1)N1CCN(c2cnc(NCc3cccc(OC(F)(F)F)c3)nc2)CC1` [Compound 18], the IC50 stood at 3.6 nM. Turning to `O=C(CN1CCN(c2cnc(NCc3cccc(OC(F)(F)F)c3)nc2)CC1)N1CCc2[nH]nnc2C1` [Compound 21, 1-{1H,4H,5H,6H,7H-[1,2,3]triazolo[4,5-c]pyridin-5-yl}-2-{4-[2-({[3-(trifluoromethoxy)phenyl]methyl}amino)pyrimidin-5-yl]piperazin-1-yl}ethan-1-one], the IC50 was determined as 4.1 nM. As to `O=C(CCN1CCN(c2cnc(NC3Cc4ccccc4C3)nc2)CC1)N1CCc2[nH]nnc2C1` [Compound 23], the IC50 was determined as 6.8 nM. On to `O=C1O[C@@H](CN2CCN(c3cnc(NC4Cc5ccccc5C4)nc3)CC2)CN1c1ccc2[nH]c(=O)oc2c1` [Compound 26, 6-[(5S)-5-[(4-{2-[(2,3-dihydro-1H-inden-2-yl)amino]pyrimidin-5-yl}piperazin-1-yl)methyl]-2-oxo-1,3-oxazolidin-3-yl]-2,3-dihydro-1,3-benzoxazol-2-one], for which the IC50 amounted to 13.1 nM.

As to `O=C(CN1CCN(c2cnc(NC3Cc4ccccc4C3)nc2)CC1)c1ccc2[nH]c(=O)oc2c1` [Compound 28, 6-[2-(4-{2-[(2,3-dihydro-1H-inden-2-yl)amino]pyrimidin-5-yl}piperazin-1-yl)acetyl]-2,3-dihydro-1,3-benzoxazol-2-one], the IC50 came out at 3.1 nM.

Regarding `O=c1[nH]c2ccc(/C(CN3CCN(c4cnc(NC5Cc6ccccc6C5)nc4)CC3)=N\O)cc2o1` [Compound 29, 6-[(1E)-2-(4-{2-[(2,3-dihydro-1H-inden-2-yl)amino]pyrimidin-5-yl}piperazin-1-yl)-1-(hydroxyimino)ethyl]-2,3-dihydro-1,3-benzoxazol-2-one], the IC50 is 3.9 nM. With `O=c1[nH]c2ccc(C3=NOC(CN4CCN(c5cnc(NC6Cc7ccccc7C6)nc5)CC4)C3)cc2o1` (centres unmarked) [Compound 31, 6-{5-[(4-{2-[(2,3-dihydro-1H-inden-2-yl)amino]pyrimidin-5-yl}piperazin-1-yl)methyl]-4,5-dihydro-1,2-oxazol-3-yl}-2,3-dihydro-1,3-benzoxazol-2-one], the IC50 came to 11.8 nM. As to `O=C(Cc1nnc(-c2cnc(NC3Cc4ccccc4C3)nc2)o1)N1CCc2[nH]nnc2C1` [Compound 33, 2-(5-(2-((2,3-dihydro-1H-inden-2-yl)amino)pyrimidin-5-yl)-1,3,4-oxadiazol-2-yl)-1-(1,4,6,7-tetrahydro-5H-[1,2,3]triazolo[4,5-c]pyridin-5-yl) ethan-1-one], the IC50 was determined as 2.4 nM. Regarding `O=C(Cc1nnc(-c2ccc(NC3Cc4ccccc4C3)nc2)o1)N1CCc2[nH]nnc2C1` [Compound 36, 2-(5-{6-[(2,3-dihydro-1H-inden-2-yl)amino]pyridin-3-yl}-1,3,4-oxadiazol-2-yl)-1-{1H,4H,5H,6H,7H-[1,2,3]triazolo[4,5-c]pyridin-5-yl}ethan-1-one], the IC50 is 2.9 nM.

As to `O=C(Cc1nnc(-c2cnc(NC3Cc4ccccc4C3)nc2)o1)N1CCc2nc[nH]c2C1` [Compound 38, 2-(5-{2-[(2,3-dihydro-1H-inden-2-yl)amino]pyrimidin-5-yl}-1,3,4-oxadiazol-2-yl)-1-{3H,4H,5H,6H,7H-imidazo[4,5-c]pyridin-5-yl}ethan-1-one], the IC50 turned out to be 4 nM. With `O=C(Cc1nnc(-c2cnc(NC3Cc4ccccc4C3)nc2)o1)N1CCc2[nH]c(=O)ccc2C1` [Compound 39, 6-[2-(5-{2-[(2,3-dihydro-1H-inden-2-yl)amino]pyrimidin-5-yl}-1,3,4-oxadiazol-2-yl)acetyl]-1,2,5,6,7,8-hexahydro-1,6-naphthyridin-2-one] the figure was 10.6 nM; with `O=C(Cc1nnc(-c2cnc(NC3Cc4ccccc4C3)nc2)o1)N1CCc2[nH]c(=O)[nH]c2C1` [Compound 40, 5-[2-(5-{2-[(2,3-dihydro-1H-inden-2-yl)amino]pyrimidin-5-yl}-1,3,4-oxadiazol-2-yl)acetyl]-1H,2H,3H,4H,5H,6H,7H-imidazo[4,5-c]pyridin-2-one], 10.1 nM; with `O=C(Cc1nnc(-c2cnc(NC3Cc4ccccc4C3)nc2)o1)N1CCc2[nH]ncc2C1` [Compound 42, 2-(5-{2-[(2,3-dihydro-1H-inden-2-yl)amino]pyrimidin-5-yl}-1,3,4-oxadiazol-2-yl)-1-{1H,4H,5H,6H,7H-pyrazolo[4,3-c]pyridin-5-yl}ethan-1-one], 8.1 nM. On to `Nc1nc2c(s1)CCN(C(=O)Cc1nnc(-c3cnc(NC4Cc5ccccc5C4)nc3)o1)C2` [Compound 43, 1-{2-amino-4H,5H,6H,7H-[1,3]thiazolo[4,5-c]pyridin-5-yl}-2-(5-{2-[(2,3-dihydro-1H-inden-2-yl)amino]pyrimidin-5-yl}-1,3,4-oxadiazol-2-yl)ethan-1-one], for which the IC50 stood at 11.2 nM. Regarding `O=C(Cc1nnc(-c2cnc(NC3Cc4ccccc4C3)nc2)o1)N1CCc2cn[nH]c2C1` [Compound 44, 2-(5-{2-[(2,3-dihydro-1H-inden-2-yl)amino]pyrimidin-5-yl}-1,3,4-oxadiazol-2-yl)-1-{1H,4H,5H,6H,7H-pyrazolo[3,4-c]pyridin-6-yl}ethan-1-one], the IC50 was 16.6 nM. In the case of `O=C(Cn1cc(-c2cnc(NC3Cc4ccccc4C3)nc2)c(CN2CCCNCC2)n1)N1CCc2[nH]nnc2C1` [Compound 90, 2-[3-(1,4-diazepan-1-ylmethyl)-4-{2-[(2,3-dihydro-1H-inden-2-yl)amino]pyrimidin-5-yl}-1H-pyrazol-1-yl]-1-{1H,4H,5H,6H,7H-[1,2,3]triazolo[4,5-c]pyridin-5-yl}ethan-1-one. HCl], the IC50 amounted to 2.6 nM. As for `CCN1CCN(Cc2nn(CC(=O)N3CCc4[nH]nnc4C3)cc2-c2cnc(NC3Cc4ccccc4C3)nc2)CC1` [Compound 91, 2-(4-{2-[(2,3-dihydro-1H-inden-2-yl)amino]pyrimidin-5-yl}-3-[(4-ethylpiperazin-1-yl)methyl]-1H-pyrazol-1-yl)-1-{1H,4H,5H,6H,7H-[1,2,3]triazolo[4,5-c]pyridin-5-yl}ethan-1-one], the IC50 was determined as 2.4 nM. As for `O=C(Cn1cc(-c2cnc(NC3Cc4ccccc4C3)nc2)c(CN2CCN(CC(F)F)CC2)n1)N1CCc2[nH]nnc2C1` [Compound 92, 2-(3-{[4-(2,2-difluoroethyl)piperazin-1-yl]methyl}-4-{2-[(2,3-dihydro-1H-inden-2-yl)amino]pyrimidin-5-yl}-1H-pyrazol-1-yl)-1-{1H,4H,5H,6H,7H-[1,2,3]triazolo[4,5-c]pyridin-5-yl}ethan-1-one], the IC50 stood at 2.3 nM. On to `O=C(Cn1cc(-c2cnc(NC3Cc4ccccc4C3)nc2)c(CCN2CCOCC2)n1)N1CCc2[nH]nnc2C1` [Compound 93, 2-(4-{2-[(2,3-dihydro-1H-inden-2-yl)amino]pyrimidin-5-yl}-3-[2-(morpholin-4-yl)ethyl]-1H-pyrazol-1-yl)-1-{1H,4H,5H,6H,7H-[1,2,3]triazolo[4,5-c]pyridin-5-yl}ethan-1-one], for which the IC50 came out at 2.1 nM. With `CCc1nn(CC(=O)N2CCN(C(=O)CO)CC2)cc1-c1cnc(NC2Cc3ccccc3C2)nc1` [Compound 94, 1-{4-[2-(4-{2-[(2,3-dihydro-1H-inden-2-yl)amino]pyrimidin-5-yl}-3-ethyl-1H-pyrazol-1-yl)acetyl]piperazin-1-yl}-2-hydroxyethan-1-one] the figure was 2.3 nM.
